The text below walks through data of US9802937B2, “Substituted pyrazolo{4,3-D}pyrimidines as kinase inhibitors” (ORIGENIS GMBH, priority 2011, dated 2017).

For the assay, the target named is T1, SYK kinase (Homo sapiens, UniProt P43405).
T1 construct: purchased Invitrogen, Carlsbad
Description: SYK Assay (OMNIA KINASE ASSAY, SOX peptide fluorescence). In kind it is biochemical. As to conditions: apparent Ki calculated from the IC50 using the Cheng-Prusoff equation; 1 mM ATP, 30° C.; read-out: SYK Activities: Ki. As for the experimental part: In the assay OMNIA® KINASE ASSAY by Invitrogen Corporation (Carlsbad) the effect of invention of a compound on the phosphorylation is determined by measurement of fluorescence intensity of a chelation-enhanced fluorophore called SOX. Upon phosphorylation of the peptide by the kinase of interest, Mg2+ is chelated to form a bridge between the SOX moiety and the phosphate group that is transferred to the specific tyrosine on the peptide. The fluorescence intensity is directly proportional to the amount of peptide phosphorylation.
To the wells of an 384 well small volume plate (Greiner, Frickenhausen) are added (i) the compound under test in 5% DMSO/distilled water (2 μl), (ii) 16 μl of the master mix containing ATP, DTT, Kinase Reaction Buffer, Omina Peptide Substrate Tyr 7 resulting in a final concentration of 1 mM ATP, 0.2 mM DTT and 10 μM Peptide Substrate.
The Master Mix and the assay plate was incubated to reaction temperature before the measurement (30° C.). The reaction was started with addition of (iii) 2 μl 4 μg/ml SYK kinase (Invitrogen, Carlsbad). During measurement fluorescence intensitiy readings were collected using a TECAN M1000 at a wavelength of λex 360/λem 485 nm every 30 s for 30 minutes. The reaction velocity was plotted versus the inhibitor concentration to determine the […] using XLFit 5.0 (IDBS, Guildford) to fit to a sigmoidal dose response curve, and the apparent Ki values were calculated from the IC50 using the Cheng-Prusoff equation (Cheng, Y.; Prusoff, W. H. Biochem. Pharmacol. 22, 3099-3108, 1973).
Regarding `COC(=O)c1cccc(-c2nc(Nc3ccc4c(c3)NC(=O)CC4)c3[nH]ncc3n2)c1` [Example #210, methyl 3-(7-((2-oxo-1,2,3,4-tetrahydroquinolin-7-yl)amino)-1H-pyrazolo[4,3-d]pyrimidin-5-yl)benzoate], the Ki is 10 to 100 nM.

Consider `CN(C)Cc1ccc(Nc2nc(-c3cccc(N)c3)nc3cn[nH]c23)cc1` [Example #309, 5-(3-aminophenyl)-N-(4-((dimethylamino)methyl)phenyl)-1H-pyrazolo[4,3-d]pyrimidin-7-amine], for which the Ki was 10 to 100 nM. As for `CN1CCN(c2ccc(Nc3nc(-c4ccccc4O)nc4cn[nH]c34)cc2)CC1` [Example #105, 2-(7-((4-(4-methylpiperazin-1-yl)phenyl)amino)-1H-pyrazolo[4,3-d]pyrimidin-5-yl)phenol], the figure is 10 to 100 nM. For `N[C@@H]1CCCC[C@@H]1Nc1nc(-c2ccsc2)nc2cn[nH]c12` [Example #116, (1S,2R)—N-(5-Thiophen-3-yl-1H-pyrazolo[4,3-d]pyrimidin-7-yl)-cyclohexane-1,2-diamine] the value was 10 to 100 nM; for `CS(=O)(=O)c1cccc(Nc2nc(-c3cccc(S(C)(=O)=O)c3)nc3cn[nH]c23)c1` [Example #253, N,5-bis(3-(methylsulfonyl)phenyl)-1H-pyrazolo[4,3-d]pyrimidin-7-amine], 10 to 100 nM. `O=C1CCc2ccc(Nc3nc(-c4cccc(S(F)(F)(F)(F)F)c4)nc4cn[nH]c34)cc2N1` [Example #222, 7-((5-(3-(pentafluorosulfanyl)phenyl)-1H-pyrazolo[4,3-d]pyrimidin-7-yl)amino)-3,4-dihydroquinolin-2(1H)-one]: the Ki was 100 to 1000 nM.

Take `c1cc(-c2nc(Nc3ccc4[nH]ncc4c3)c3[nH]ncc3n2)ccn1` [Example #13, N-(1H-indazol-5-yl)-5-(pyridin-4-yl)-1H-pyrazolo[4,3-d]pyrimidin-7-amine]: the Ki is 100 to 1000 nM. As for `Cc1ccc(CNCc2cccc(-c3nc(Nc4ccc(N5CCN(C)CC5)cc4)c4[nH]ncc4n3)c2)cc1` [Example #180, 5-(3-(((4-methylbenzyl)amino)methyl)phenyl)-N-(4-(4-methylpiperazin-1-yl)phenyl)-1H-pyrazolo[4,3-d]pyrimidin-7-amine], the figure is 10 to 100 nM; as for `O=C1CCc2ccc(Nc3nc(-c4ccc5c(c4)NC(=O)CO5)nc4cn[nH]c34)cc2N1` [Example #287, 6-(7-((2-oxo-1,2,3,4-tetrahydroquinolin-7-yl)amino)-1H-pyrazolo[4,3-d]pyrimidin-5-yl)-2H-benzo[b][1,4]oxazin-3(4H)-one], 10 to 100 nM. For `N#Cc1ccc(Nc2nc(-c3ccccc3)nc3cn[nH]c23)cc1` [Example #12, 4-((5-phenyl-1H-pyrazolo[4,3-d]pyrimidin-7-yl)amino)benzonitrile] the value was 10 to 100 nM; for `COC(=O)c1cccc(-c2nc(Nc3ccc4cn[nH]c4c3)c3[nH]ncc3n2)c1` [Example #307, methyl 3-(7-((1H-indazol-6-yl)amino)-1H-pyrazolo[4,3-d]pyrimidin-5-yl)benzoate], 100 to 1000 nM.

On to `CN1CCC(c2nc(Nc3ccc4c(c3)NC(=O)CO4)c3[nH]ncc3n2)CC1` [Example #54, 6-((5-(1-methylpiperidin-4-yl)-1H-pyrazolo[4,3-d]pyrimidin-7-yl)amino)-2H-benzo[b][1,4]oxazin-3(4H)-one], for which the Ki was less than 10 nM. As for `CN(C)Cc1cccc(Nc2nc(-c3cccs3)nc3cn[nH]c23)c1` [Example #292, N-(3-((dimethylamino)methyl)phenyl)-5-(thiophen-2-yl)-1H-pyrazolo[4,3-d]pyrimidin-7-amine], the figure is 100 to 1000 nM; as for `COc1ccc(OC)c(-c2nc(Nc3ccc(N4CCN(C5CC5)CC4)cc3)c3[nH]ncc3n2)c1` [Example #123, N-(4-(4-cyclopropylpiperazin-1-yl)phenyl)-5-(2,5-dimethoxyphenyl)-1H-pyrazolo[4,3-d]pyrimidin-7-amine], 10 to 100 nM; as for `CN1CCC(c2nc(Nc3cccc(O)c3)c3[nH]ncc3n2)CC1` [Example #94, 3-((5-(1-methylpiperidin-4-yl)-1H-pyrazolo[4,3-d]pyrimidin-7-yl)amino)phenol], 10 to 100 nM. As for `CN1CCN(c2ccc(Nc3nc(-c4cccc(N5CCOCC5)c4)nc4cn[nH]c34)cc2)CC1` [Example #106, N-(4-(4-methylpiperazin-1-yl)phenyl)-5-(3-morpholinophenyl)-1H-pyrazolo[4,3-d]pyrimidin-7-amine], the figure is 10 to 100 nM; as for `FS(F)(F)(F)(F)c1ccc(Nc2nc(-c3ccsc3)nc3cn[nH]c23)cc1` [Example #178, N-(4-(pentafluorosulfanyl)phenyl)-5-(thiophen-3-yl)-1H-pyrazolo[4,3-d]pyrimidin-7-amine], 100 to 1000 nM; as for `COc1ccccc1-c1nc(Nc2ccc(N3CCOCC3)cc2)c2[nH]ncc2n1` [Example #112, 5-(2-methoxyphenyl)-N-(4-morpholinophenyl)-1H-pyrazolo[4,3-d]pyrimidin-7-amine], 10 to 100 nM. In the case of `COC(=O)c1cccc(-c2nc(Nc3ccc4c(c3)NC(=O)CCC4)c3[nH]ncc3n2)c1` [Example #217, methyl 3-(7-((2-oxo-2,3,4,5-tetrahydro-1H-benzo[b]azepin-8-yl)amino)-1H-pyrazolo[4,3-d]pyrimidin-5-yl)benzoate], the Ki was 100 to 1000 nM.

Consider `COc1ccc(Nc2nc(-c3cccc(Cl)c3)nc3cn[nH]c23)cc1OC` [Example #230, 5-(3-chlorophenyl)-N-(3,4-dimethoxyphenyl)-1H-pyrazolo[4,3-d]pyrimidin-7-amine], for which the Ki was 10 to 100 nM. For `Cc1cccc(NC(=O)Nc2ccc(Nc3nc(-c4ccsc4)nc4cn[nH]c34)cc2)c1` [Example #133, 1-(4-((5-(thiophen-3-yl)-1H-pyrazolo[4,3-d]pyrimidin-7-yl)amino)phenyl)-3-(m-tolyl)urea] the value was 100 to 1000 nM. Consider `CC(C)(C)c1cccc(Nc2nc(-c3cccs3)nc3cn[nH]c23)c1` [Example #305, N-(3-(tert-butyl)phenyl)-5-(thiophen-2-yl)-1H-pyrazolo[4,3-d]pyrimidin-7-amine], for which the Ki was 100 to 1000 nM. As for `CN(C)Cc1cccc(Nc2nc(-c3ccccc3F)nc3cn[nH]c23)c1` [Example #312, N-(3-((dimethylamino)methyl)phenyl)-5-(2-fluorophenyl)-1H-pyrazolo[4,3-d]pyrimidin-7-amine], the figure is 100 to 1000 nM. As for `c1cc(Nc2nc(-c3cccs3)nc3cn[nH]c23)cc(-n2nccn2)c1` [Example #262, N-(3-(2H-1,2,3-triazol-2-yl)phenyl)-5-(thiophen-2-yl)-1H-pyrazolo[4,3-d]pyrimidin-7-amine], the figure is 100 to 1000 nM; as for `CN1CCN(c2ccc(Nc3nc(C(=O)c4ccccc4)nc4cn[nH]c34)cc2)CC1` [Example #152, (7-((4-(4-methylpiperazin-1-yl)phenyl)amino)-1H-pyrazolo[4,3-d]pyrimidin-5-yl)(phenyl)methanone], 10 to 100 nM; as for `COc1ccc(Nc2nc(-c3ccc4c(c3)NC(=O)CO4)nc3cn[nH]c23)cc1OC` [Example #299, 6-(7-((3,4-dimethoxyphenyl)amino)-1H-pyrazolo[4,3-d]pyrimidin-5-yl)-2H-benzo[b][1,4]oxazin-3(4H)-one], 10 to 100 nM. For `c1cc2cn[nH]c2cc1Nc1nc(-c2ccc(N3CCCC3)nc2)nc2cn[nH]c12` [Example #30, N-(1H-indazol-6-yl)-5-(6-(pyrrolidin-1-yl)pyridin-3-yl)-1H-pyrazolo[4,3-d]pyrimidin-7-amine] the value was less than 10 nM.
